Where a name gives a salt, the structure may show the parent alone. Read-outs that look alike come from different tables or passages of the source.
Assays:
Assay type in all cases: biochemical
recombinant human FAK = molecular target: T1, recombinant human FAK (Homo sapiens, UniProt Q05397); test: FAK Enzyme Assay (TRF detection); conditions: 10 μM ATP; average of two or more determinations; class symbols
T1 construct: purchased Invitrogen PV3832; host or cells: baculovirus expression system
Experimental: Example compounds were tested for their ability to inhibit the kinase activity of baculovirus-expressed recombinant human FAK using the TRF detection system as described above for JAK2. IC50 runs were performed in 96-well Costar high binding plates (#3922). The plates were coated first with 100 μL/well of 10 μg/mL neutravidin in TBS at 37° C. for 2 h, followed by 100 μL/well of 1 μg/mL 15-mer peptide substrate (biotinyl-amino-hexanoyl-EQEDEPEGDYFEWLE-amide) at 37° C. for another hour. The FAK assay mixture (total volume=100 μL/well) consisting of 20 mM HEPES, pH 7.2, 10 μM ATP, 5 mM MgCl2, 0.5 mM DTT, 0.1% BSA, and test compound (diluted in DMSO; 2.5% DMSO final in assay) was then added to the assay plate. Enzyme (10 ng/mL FAK, Invitrogen #PV3832) was added and the reaction was allowed to proceed at room temperature for 30 minutes. Detection of the phosphorylated product was performed by adding 100 μL/well of Eu—N1 labeled PY100 antibody (diluted 1:75000 in antibody dilution buffer). Samples were incubated at room temperature for 1 hour, followed by addition of 100 μL enhancement solution. Plates were agitated for 10 minutes and fluorescence of the resulting solution measured using the PerkinElmer EnVision™ 2102 (or 2104) multi-label plate reader.
(§1) Data analysis was performed using ActivityBase (IDBS, Guilford, UK). IC50 values were calculated by plotting percent inhibition versus log10 of the concentration of compound and fitting to the nonlinear regression sigmoidal dose-response (variable slope) equation in XLFit (IDBS, Guilford, UK).

[1] = molecular target: T2, baculovirus-expressed ALK (Homo sapiens, UniProt Q9UM73); test: ALK Kinase Assay (ELISA/TRF); conditions: 1 μM ATP (Km level); average of two or more determinations; class symbols
T2 construct: host or cells: baculovirus expression system
Experimental: Briefly, each 96-well plate was coated with 100 μL/well of 10 μg/mL substrate (GST-PLC-γ) in Tris-buffered saline (TBS). […] The reaction was initiated by adding enzyme (30 ng/mL ALK) and was allowed to proceed at 37° C. for 15 minutes. Detection of the phosphorylated product was performed by adding 100 μL/well of Eu—N1 labeled PT66 antibody (Perkin Elmer #AD0041). […] Data analysis was performed using ActivityBase (IDBS, Guilford, UK). IC50 values were calculated by plotting percent inhibition versus log10 of the concentration of compound and fitting to the nonlinear regression sigmoidal dose-response (variable slope) equation in XLFit (IDBS, Guilford, UK).

[2] = molecular target: T3, baculovirus-expressed JAK2 (Homo sapiens, UniProt O60674); test: JAK2 Kinase Assay (TRF detection); conditions: 0.2 μM ATP; average of two or more determinations; class symbols
T3 construct: host or cells: baculovirus expression system
Experimental: Compounds were tested for their ability to inhibit the kinase activity of baculovirus-expressed JAK2 using the TRF detection system. IC50 runs were conducted in 96-well Costar high binding plates (Corning Costar #3922, Corning, N.Y.). The plates were coated first with 100 μL/well of 10 μg/mL Neutravidin (Pierce #31000, Rockford, Ill.) in TBS at 37° C. for 2 hours, followed by 100 μL/well of 1 μg/mL 15-mer peptide substrate (biotinyl-amino-hexanoyl-EQEDEPEGDYFEWLE-amide, Infinity Biotech Research and Resource, Aston, Pa.) at 37° C. for another hour. The JAK2 assay mixture (total volume=100 μL/well) consisting of 20 mM HEPES, pH 7.2, 0.2 μM ATP, 1 mM MnCl2, 0.1% BSA, and test compound (diluted in DMSO; 2.5% DMSO final in assay) was then added to the assay plate. Enzyme (15 ng/ml JAK2) was added and the reaction was allowed to proceed at room temperature for 20 minutes. Detection of the phosphorylated product was performed by adding 100 μL/well of Eu—N1 labeled PY100 antibody (PerkinElmer Life Sciences #AD0041, Boston, Mass.). Incubation at the room temperature then proceeded for 1 hour, followed by addition of 100 μl enhancement solution (PerkinElmer Life Sciences #1244-105, Boston, Mass.). The plate was gently agitated and after thirty minutes, the fluorescence of the resulting solution was measured using the PerkinElmer EnVision™ 2102 (or 2104) multi-label plate reader.
as §1

[3] = molecular target: T4, human insulin receptor cytoplasmic domain (βIRCD) (Homo sapiens, UniProt P06213); test: Insulin Receptor Kinase Assay (TRF); conditions: 20 μM ATP, read-out: IR IC50
T4 construct: human insulin receptor cytoplasmic domain (βIRCD); host or cells: baculovirus expression system
Experimental: Example compounds were tested for their ability to inhibit the kinase activity of baculovirus-expressed human insulin receptor cytoplasmic domain (βIRCD) using the TRF assay as described above for ALK. Phosphorylation of the substrate, recombinant GST-PLC-γ, was detected with a europium-labeled anti-phosphotyrosine antibody and measured by TRF. Each 96-well plate (Greiner#655074) was coated with 100 μL/well of 20 μg/mL substrate solution in TBS. The IR assay mixture (total volume=100 μL/well) consisting of 20 mM HEPES (pH 7.2), 20 μM ATP, 5 mM MnCl2, 0.1% BSA, and test compound (diluted in DMSO; 2.5% DMSO final in assay) was added to the assay plates. Enzyme (20 ng/mL βIRCD) was added and the reaction was allowed to proceed at room temperature for 20 minutes. Detection of the phosphorylated product was performed by adding 100 μL/well of Eu—N1 labeled PY100 antibody (PerkinElmer#AD0160; diluted 1:10,000 in TBS-T containing 0.25% BSA). Incubation at 37° C. for 1 hour was followed by addition of 50 μL enhancement solution (Wallace#1244-105). Plates were agitated for 10 minutes and the fluorescence was measured using the PerkinElmer EnVision™ 2102 or 2104 multi-label plate reader.
as §1

[4] = average of two or more determinations, class symbols

T2 sequence (Q9UM73 19-1620): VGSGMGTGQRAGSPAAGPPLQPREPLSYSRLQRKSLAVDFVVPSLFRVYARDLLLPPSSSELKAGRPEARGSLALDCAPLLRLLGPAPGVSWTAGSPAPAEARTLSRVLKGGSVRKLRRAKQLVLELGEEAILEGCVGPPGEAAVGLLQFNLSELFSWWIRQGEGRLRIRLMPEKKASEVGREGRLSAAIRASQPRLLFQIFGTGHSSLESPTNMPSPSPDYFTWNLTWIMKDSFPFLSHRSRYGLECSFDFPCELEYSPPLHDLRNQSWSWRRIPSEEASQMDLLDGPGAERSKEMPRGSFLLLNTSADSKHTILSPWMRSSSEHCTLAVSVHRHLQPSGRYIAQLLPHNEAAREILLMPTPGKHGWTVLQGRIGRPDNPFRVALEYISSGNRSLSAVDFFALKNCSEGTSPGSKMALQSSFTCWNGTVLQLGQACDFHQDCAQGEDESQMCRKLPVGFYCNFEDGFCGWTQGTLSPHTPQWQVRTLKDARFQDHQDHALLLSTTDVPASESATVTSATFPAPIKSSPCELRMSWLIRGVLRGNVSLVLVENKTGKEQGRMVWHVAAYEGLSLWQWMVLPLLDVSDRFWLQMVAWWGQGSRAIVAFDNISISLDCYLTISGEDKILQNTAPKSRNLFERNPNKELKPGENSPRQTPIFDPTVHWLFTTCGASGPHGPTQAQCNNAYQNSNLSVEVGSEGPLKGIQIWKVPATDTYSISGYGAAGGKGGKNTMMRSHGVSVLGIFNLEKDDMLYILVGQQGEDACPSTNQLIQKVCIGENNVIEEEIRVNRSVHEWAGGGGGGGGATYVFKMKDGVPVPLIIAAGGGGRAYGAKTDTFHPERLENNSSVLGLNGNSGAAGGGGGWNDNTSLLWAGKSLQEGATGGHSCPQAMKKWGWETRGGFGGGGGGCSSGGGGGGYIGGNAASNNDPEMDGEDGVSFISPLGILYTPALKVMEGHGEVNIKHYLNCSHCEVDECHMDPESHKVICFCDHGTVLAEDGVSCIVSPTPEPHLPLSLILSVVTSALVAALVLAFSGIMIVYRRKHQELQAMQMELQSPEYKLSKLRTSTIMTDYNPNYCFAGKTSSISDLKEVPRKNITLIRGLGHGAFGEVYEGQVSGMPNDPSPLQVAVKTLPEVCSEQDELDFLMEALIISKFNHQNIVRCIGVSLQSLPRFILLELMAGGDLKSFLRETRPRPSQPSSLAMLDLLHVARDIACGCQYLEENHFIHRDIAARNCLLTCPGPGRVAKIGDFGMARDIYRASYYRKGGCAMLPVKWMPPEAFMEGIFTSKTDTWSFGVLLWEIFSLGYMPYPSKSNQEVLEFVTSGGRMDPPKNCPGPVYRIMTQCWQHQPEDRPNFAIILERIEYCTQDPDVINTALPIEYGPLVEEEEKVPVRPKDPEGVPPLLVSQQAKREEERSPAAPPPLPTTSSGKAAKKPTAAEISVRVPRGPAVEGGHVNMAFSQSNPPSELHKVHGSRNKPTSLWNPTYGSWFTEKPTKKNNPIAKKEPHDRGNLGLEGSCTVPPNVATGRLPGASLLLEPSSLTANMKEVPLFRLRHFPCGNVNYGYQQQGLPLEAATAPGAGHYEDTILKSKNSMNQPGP
T1 sequence (Q05397 whole entry): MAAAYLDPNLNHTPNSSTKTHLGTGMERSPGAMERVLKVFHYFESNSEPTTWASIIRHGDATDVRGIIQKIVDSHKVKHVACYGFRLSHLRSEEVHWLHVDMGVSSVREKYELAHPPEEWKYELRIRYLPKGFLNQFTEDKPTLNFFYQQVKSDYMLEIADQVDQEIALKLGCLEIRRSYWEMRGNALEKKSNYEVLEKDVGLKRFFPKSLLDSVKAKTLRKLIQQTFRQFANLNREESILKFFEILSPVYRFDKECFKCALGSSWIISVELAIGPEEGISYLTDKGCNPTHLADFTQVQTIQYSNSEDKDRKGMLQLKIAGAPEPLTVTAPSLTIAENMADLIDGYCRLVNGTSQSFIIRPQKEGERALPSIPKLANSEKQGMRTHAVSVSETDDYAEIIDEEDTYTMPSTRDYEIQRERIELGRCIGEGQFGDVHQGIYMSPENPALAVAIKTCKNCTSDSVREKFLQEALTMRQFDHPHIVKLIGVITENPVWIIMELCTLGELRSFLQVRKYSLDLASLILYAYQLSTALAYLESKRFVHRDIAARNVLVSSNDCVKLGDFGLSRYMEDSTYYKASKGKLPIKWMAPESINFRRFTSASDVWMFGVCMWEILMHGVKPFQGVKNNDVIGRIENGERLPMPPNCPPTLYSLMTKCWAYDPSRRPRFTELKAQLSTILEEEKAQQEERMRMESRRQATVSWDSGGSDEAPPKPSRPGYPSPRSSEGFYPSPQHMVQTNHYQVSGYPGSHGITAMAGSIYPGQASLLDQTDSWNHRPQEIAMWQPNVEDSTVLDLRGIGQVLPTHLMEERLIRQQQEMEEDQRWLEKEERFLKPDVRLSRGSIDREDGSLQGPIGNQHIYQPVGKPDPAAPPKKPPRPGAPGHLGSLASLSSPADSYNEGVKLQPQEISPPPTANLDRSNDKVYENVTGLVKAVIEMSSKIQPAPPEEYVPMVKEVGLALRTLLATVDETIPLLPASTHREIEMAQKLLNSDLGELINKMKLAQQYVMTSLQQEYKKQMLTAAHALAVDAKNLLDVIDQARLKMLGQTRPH
T4 sequence (P06213 980-1382 limits assumed): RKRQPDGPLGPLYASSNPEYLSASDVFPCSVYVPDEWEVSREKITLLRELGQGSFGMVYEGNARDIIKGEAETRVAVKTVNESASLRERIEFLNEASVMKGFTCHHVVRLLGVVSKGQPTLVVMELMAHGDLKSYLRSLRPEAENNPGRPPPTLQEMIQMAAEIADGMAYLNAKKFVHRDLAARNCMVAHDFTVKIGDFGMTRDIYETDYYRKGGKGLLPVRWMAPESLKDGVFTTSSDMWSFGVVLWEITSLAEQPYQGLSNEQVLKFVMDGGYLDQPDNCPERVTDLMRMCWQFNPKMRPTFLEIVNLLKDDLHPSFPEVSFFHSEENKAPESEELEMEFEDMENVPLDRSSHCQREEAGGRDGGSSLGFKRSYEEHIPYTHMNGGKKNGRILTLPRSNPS
T3 sequence (O60674 whole entry): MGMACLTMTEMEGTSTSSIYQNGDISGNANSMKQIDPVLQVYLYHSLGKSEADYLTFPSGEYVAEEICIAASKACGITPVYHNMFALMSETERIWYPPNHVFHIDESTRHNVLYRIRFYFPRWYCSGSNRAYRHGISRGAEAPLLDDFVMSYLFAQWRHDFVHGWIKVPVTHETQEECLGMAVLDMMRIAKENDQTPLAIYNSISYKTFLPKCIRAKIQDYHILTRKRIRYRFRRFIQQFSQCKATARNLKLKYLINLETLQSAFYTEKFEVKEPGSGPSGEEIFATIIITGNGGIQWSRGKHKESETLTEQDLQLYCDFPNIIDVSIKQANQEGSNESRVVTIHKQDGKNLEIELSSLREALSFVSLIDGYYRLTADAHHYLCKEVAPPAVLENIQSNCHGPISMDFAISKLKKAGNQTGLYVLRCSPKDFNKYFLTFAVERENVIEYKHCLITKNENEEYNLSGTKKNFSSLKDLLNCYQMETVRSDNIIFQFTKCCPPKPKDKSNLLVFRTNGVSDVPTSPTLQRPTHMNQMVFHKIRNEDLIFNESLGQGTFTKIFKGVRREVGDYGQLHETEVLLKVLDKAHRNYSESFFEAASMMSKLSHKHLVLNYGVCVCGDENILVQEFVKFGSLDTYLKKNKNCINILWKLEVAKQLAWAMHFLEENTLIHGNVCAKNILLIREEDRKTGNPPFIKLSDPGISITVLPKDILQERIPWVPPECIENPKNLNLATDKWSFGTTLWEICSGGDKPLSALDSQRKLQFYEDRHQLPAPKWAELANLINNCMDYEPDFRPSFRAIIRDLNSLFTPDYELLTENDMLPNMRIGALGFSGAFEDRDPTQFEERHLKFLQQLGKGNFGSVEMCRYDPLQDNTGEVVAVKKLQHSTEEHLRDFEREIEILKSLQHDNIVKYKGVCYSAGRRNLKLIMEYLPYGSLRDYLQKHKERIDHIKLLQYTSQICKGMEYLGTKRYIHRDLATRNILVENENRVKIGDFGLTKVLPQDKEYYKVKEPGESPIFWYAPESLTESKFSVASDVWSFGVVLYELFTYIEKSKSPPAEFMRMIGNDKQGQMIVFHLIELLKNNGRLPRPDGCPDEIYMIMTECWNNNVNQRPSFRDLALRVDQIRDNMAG

SMILES | IC50 (recombinant human FAK) [nM] | IC50 [1] [nM] | IC50 [2] [nM] | IC50 [3, 4] [nM] | IC50 ([3]; given as numeric bound) [nM]
O=C1Nc2cccc(c2)Nc2ncc(Cl)c(n2)Nc2cccc1c2 [Example 1, 6,13,19-Triaza-4-chloro-7,14^1,3-dibenzena-1^2,4-pyrimidinacyclodocosaph-12-one] | > 10000 | > 10000 | 101 to 1000 | – | –
CN1CCN(c2ccc3cc2CCc2cccc(c2)Nc2nc(ncc2Cl)N3)CC1 [Example 3, 6-Chloro-17-(4-methylpiperazin-1-yl)-2,4,8,22-tetraazatetracyclo[14.3.1.1^3,7.1^9,13]docosa-1(20),3(22),4,6,9(21),10,12,16,18-nonaene Trifluoroacetate (1:1)] | 101 to 1000 | – | < 10 | 101 to 1000 | –
COc1cc(N2CCN(C)CC2)c2cc1Nc1ncc(Cl)c(n1)Nc1cc(ccc1N(C)S(C)(=O)=O)CC2 [Example 5, 6-Chloro-10-(2-methanesulfonyl-methyl-amino)-17-(4-methylpiperazin-1-yl)-19-methoxy-2,4,8,22-tetraazatetracyclo[14.3.1.1^3,7.1^9,13]docosa-1(20),3(22),4,6,9(21),10,12,16,18-nonaene Trifluoroacetate (1:1)] | < 10 | – | 10 to 100 | 10 to 100 | –
COc1cc(N2CCN(C)CC2)c2cc1Nc1ncc(Cl)c(n1)Nc1cc(ccc1S(=O)(=O)C(C)C)CC2 [Example 6, 6-Chloro-10-(propane-2-sulfonyl)-17-(4-methylpiperazin-1-yl)-19-methoxy-2,4,8,22-tetraazatetracyclo[14.3.1.1^3,7.1^9,13]docosa-1(20),3(22),4,6,9(21),10,12,16,18-nonaene Trifluoroacetate (1:1)] | < 10 | – | 101 to 1000 | 10 to 100 | –
CN1CCN(c2ccc3cc2CCc2ccc(N(C)S(C)(=O)=O)c(c2)Nc2nc(ncc2Cl)N3)CC1 [Example 10, 6-Chloro-10-(2-methanesulfonyl-methyl-amino)-17-(4-methylpiperazin-1-yl)-2,4,8,22-tetraazatetracyclo[14.3.1.1^3,7.1^9,13]docosa-1(20),3(22),4,6,9(21),10,12,16,18-nonaene Trifluoroacetate (1:1)] | < 10 | – | < 10 | 101 to 1000 | –
COc1ccc2cc1Nc1nc(ncc1Cl)Nc1ccc(N3CCN(C)CC3)c(c1)CC2 [Example 14, 6-Chloro-10-methoxy-17-(4-methylpiperazin-1-yl)-2,4,8,22-tetraazatetracyclo[14.3.1.1^3,7.1^9,13]docosa-1(20),3(22),4,6,9(21),10,12,16,18-nonaene Trifluoroacetate (1:1)] | 10 to 100 | – | < 10 | 101 to 1000 | –
COc1cc(N2CCN(C)CC2)c2cc1Nc1ncc(Cl)c(n1)Nc1cccc(c1)CC2 [Example 15, 6-Chloro-17-(4-methylpiperazin-1-yl)-19-methoxy-2,4,8,22-tetraazatetracyclo[14.3.1.1^3,7.1^9,13]docosa-1(20),3(22),4,6,9(21),10,12,16,18-nonaene Trifluoroacetate (1:1)] | 101 to 1000 | – | 10 to 100 | 101 to 1000 | –
CNC(=O)c1ccc2cc1Nc1nc(ncc1Cl)Nc1ccc(N3CCN(C)CC3)c(c1)CC2 [Example 17, 6-Chloro-10-(N-methylcarboxamido)-17-(4-methylpiperazin-1-yl)-2,4,8,22-tetraazatetracyclo[14.3.1.1^3,7.1^9,13]docosa-1(20),3(22),4,6,9(21),10,12,16,18-nonaene Trifluoroacetate (1:1)] | < 10 | – | < 10 | 101 to 1000 | –
Clc1cnc2nc1Nc1cccc(c1)CCc1cc(ccc1OCCN1CCCC1)N2 [Example 23, 6-Chloro-17-[2-(pyrrolidin-1-yl)ethoxy]-2,4,8,22-tetraazatetracyclo[14.3.1.1^3,7.1^9,13]docosa-1(20),3(22),4,6,9(21),10,12,16,18-nonaene Trifluoroacetate (1:1)] | 10 to 100 | – | < 10 | 101 to 1000 | –
CN1CCN(c2ccc3cc2[C@H](O)[C@H](O)c2cccc(c2)Nc2nc(ncc2Cl)N3)CC1 [Example 27, (14R,15S)-6-chloro-17-(4-methylpiperazin-1-yl)-2,4,8,22-tetraazatetracyclo[14.3.1.1^3,7.1^9,13]docosa-1(20),3(22),4,6,9(21),10,12,16,18-nonaene-14,15-diol] | 1000 to 10000 | – | 10 to 100 | – | –

Continued, values first:

IC50 (recombinant human FAK) [nM] | IC50 [1] [nM] | IC50 [2] [nM] | IC50 [3, 4] [nM] | IC50 ([3]; given as numeric bound) [nM] | SMILES
101 to 1000 | – | < 10 | 1000 to 10000 | – | CN1CCN(c2ccc3cc2/C=C\c2cccc(c2)Nc2nc(ncc2Cl)N3)CC1 [Example 2, (14Z)-6-Chloro-17-(4-methylpiperazin-1-yl)-2,4,8,22-tetraazatetracyclo[14.3.1.1^3,7.1^9,13]docosa-1(20),3(22),4,6,9(21),10,12,14,16,18-decaene]
101 to 1000 | – | 10 to 100 | – | > 3000 | COc1ccc2cc1Nc1nc(ncc1Cl)Nc1ccc(N3CCN(C)CC3)c(c1)/C=C\2 [Example 13, (14Z)-6-Chloro-10-methoxy-17-(4-methylpiperazin-1-yl)-2,4,8,22-tetraazatetracyclo[14.3.1.1^3,7.1^9,13]docosa-1(20),3(22),4,6,9(21),10,12,14,16,18-decaene]
101 to 1000 | 101 to 1000 | 10 to 100 | – | – | CNC(=O)c1ccc2cc1Nc1nc(ncc1Cl)Nc1ccc(N3CCN(C)CC3)c(c1)/C=C\2 [Example 16, (14Z)-6-Chloro-10-(N-methylcarboxamido)-17-(4-methylpiperazin-1-yl)-2,4,8,22-tetraazatetracyclo[14.3.1.1^3,7.1^9,13]docosa-1(20),3(22),4,6,9(21),10,12,14,16,18-decaene]
10 to 100 | 101 to 1000 | 10 to 100 | – | – | CN1CCN(c2ccc3cc2/C=C\c2ccc(S(C)(=O)=O)c(c2)Nc2nc(ncc2Cl)N3)CC1 [Example 18, (14Z)-6-Chloro-10-(methanesulfonyl)-17-(4-methylpiperazin-1-yl)-2,4,8,22-tetraazatetracyclo[14.3.1.1^3,7.1^9,13]docosa-1(20),3(22),4,6,9(21),10,12,14,16,18-decaene Trifluoroacetate (1:1)]

Reference: US9487529B2, “Macrocyclic compounds as ALK, FAK and JAK2 inhibitors” (Cephalon, Inc., priority 2011, dated 2016)
